Key:
[1] = target: T1, Human nerve growth factor receptor (Homo sapiens, UniProt P04629); test: Receptor inhibitory activity using cells expressing a nerve growth factor receptor (NGF-dependent intracellular Ca increase, FLIPR); format: cell-based; conditions: HEK293 cells stably expressing Human nerve growth factor receptor; NGF about 100 to 150 ng/ml; Ca concentration change
T1 construct: expressed in transfected cells
Experimental: 1. Experiment to Measure a Receptor Inhibitory Activity Using Cells Expressing a Nerve Growth Factor Receptor
The nerve growth factor receptor inhibitory activity was measured by using the increase in a ligand-dependent calcium concentration in cells as an index. HEK293 cells (American Type Culture Collection) that stably expressed Human nerve growth factor receptor were dispensed onto a 96-well poly-D-lysine-coated plate (Product Name: Biocoat, PDL96W black/clear, by Nippon Becton Dickinson) to a 2×10^4 cells/well at the day before the experiment, and incubated overnight at 37° C. under 5% carbon dioxide (CO2) in a culture medium containing 10% fetal bovine serum (FBS) (Product Name: DMEM, Invitrogen Corporation). The culture medium was replaced by a washing solution: a Hank's balanced salt solution)(HBSS), containing a 1.5 μM loading buffer (fluorescent indicator (Product Name: Fluo-4-AM, […].)), 20 mM 2-[4-(2-hydroxyethyl)-1-piperazinyl]ethanesulfonic acid (HEPES)-sodium hydroxide (NaOH), 2.5 mM Probenecid, 0.1% bovine serum albumin (BSA), and left to stand at room temperature for 3 hours, and the cells were washed using a plate washer (Product Name: ELx405, BIO-TEK instrument Corporation) in which a washing solution had been set up. The compound that had been preliminarily dissolved and diluted in a washing solution was added thereto, and set up in a system for measuring a calcium (Ca) concentration in a cell (Product Name: FLIPR, Molecular Devices Corporation). After 5 minutes, a nerve growth factor (NGF, mouse derived 2.5S, Alomone) corresponding on 80% stimulation of a maximum response was added (to a final concentration of about 100 to 150 ng/ml) to measure the change in Ca concentrations in cells. A difference between a maximum value and a minimum value in Ca concentrations in cells was determined, and kept as measurement data. With a response upon addition of NGF being set at 0%, and a response upon addition of a buffer being set at 100%, the concentration causing 50% inhibition was determined as an IC50 value. In the table, Ex represents Compound No. of Examples as described later. From the results of this test, it was confirmed that the compound of the present invention has a nerve growth factor receptor inhibitory activity.

[2] = target: T2, trkA receptor (Rattus norvegicus, UniProt P35739); test: Inhibitory activity on enhanced vascular permeability caused by NGF in rat (Evans blue); format: in vivo; conditions: Wistar female rat, 10 mg/kg oral, NGF intracutaneous 60 min after administration, vehicle group set at 100%
T2 construct: from tissue; host or cells: Wistar female rat (SLC), skin of the back, in vivo
Experimental: 2. Evaluation of the Inhibitory Activity of the Compound on Enhanced Vascular Permeability Caused by NGF in Rat
The in vivo trkA receptor inhibitory activity of the compound was examined. A Wistar female rat (SLC) were forced to be orally administered with the compound (0.5% methylcellulose solution) 10 mg/3 ml/kg or a vehicle (0.5% methylcellulose solution) 3 ml/kg. Under ether anesthesia performed at 60 min after administration, physiological saline or 1 ug/ml NGF (NGF, mouse derived 2.5S, Alomone) was intracutaneously administered to the back at 50 ul/site, and then immediately a 1% Evans blue solution (dissolved in physiological saline) was administered through caudal vein at 3 ml/kg. At a time point of 10 min after the administration, the skin on the back was taken, and shaken in formamide for 16 hours. After shaking, an absorption of Evans blue extracted with formamide was measured by an absorption meter (wavelength: 620 nm), and the concentration was determined by a calibration curve method. A value obtained by subtracting the concentration of Evans blue at a site administered with physiological saline from the concentration of Evans blue at a site administered with NGF has a function dependent on NGF, and an inhibitory rate of the compound group was determined with a group administered with vehicle being set at 100%. In this test, it was confirmed that the compound of the present invention has an excellent inhibitory activity on enhanced vascular permeability caused by NGF in rat.

[3] = test system: CPA-induced urinary frequency in rat; test: Effects on cyclophosphamide (CPA)-induced urinary frequency in rat; format: in vivo; conditions: Wistar female rat, 2 days after CPA, value before administration = 100%
Experimental: 3. Effects of the Compound on the Cyclophosphamide (CPA)-Induced Urinary Frequency in Rat
CPA (150 mg/5 ml/kg) was intraperitoneally administered to a Wistar female rat (Charles river laboratories), and after two days, the experiment was carried out. It was forced to be orally administered with distilled water (30 ml/kg), and then placed in a metabolic cage, and the voided urine weight and the urination frequency were continuously measured for 1 hour. The compound (0.5% methylcellulose solution) 3 or 10 mg/5 ml/kg, or a vehicle (0.5% methylcellulose solution) 5 ml/kg was orally administered, and after 5 to 30 min, the urinary functions were measured after loading water in the same manner as described above. A total voided urine weight was divided by the total urination frequency to determine an effective bladder capacity. With the value before administration of the compound being set at 100%, a rate of change in the effective bladder capacity caused by administration of the compound was determined.
In this test, at 2 days after CPA treatment, the effective bladder capacity was decreased (about 0.5 ml), indicating urinary frequency condition.

[4] = test system: acetic acid-induced painful behaviors in rat; test: Effects on acetic acid-induced painful behaviors (writhing) in rat; format: in vivo; conditions: Wistar male rat; 10 mg/kg oral 5 min before 1% acetic acid i.p.; writhing frequency 10-20 min; vehicle group = 100%
Experimental: 4. Effects of the Compound on Acetic Acid-Induced Painful Behaviors in Rat
1% Acetic acid (99% distilled water) was intraperitoneally administered to a Wistar male rat (Charles river laboratories), and the frequency of pain behavior (writhing) between 10 min and 20 min after administration was measured. The compound (10 mg/5 ml/kg) or a vehicle (0.5% methylcellulose solution) was orally administered 5 mins before the administration of 1% acetic acid. With the frequency of the group administered with the vehicle being set at 100%, the inhibition rate of the writhing behavior frequency by the compound administration was determined.

[5] = dose 3 mg/kg oral, evaluation 5-65 min after administration
[6] = dose 10 mg/kg oral, evaluation 30-90 min after administration

T2 sequence (P35739 33-799): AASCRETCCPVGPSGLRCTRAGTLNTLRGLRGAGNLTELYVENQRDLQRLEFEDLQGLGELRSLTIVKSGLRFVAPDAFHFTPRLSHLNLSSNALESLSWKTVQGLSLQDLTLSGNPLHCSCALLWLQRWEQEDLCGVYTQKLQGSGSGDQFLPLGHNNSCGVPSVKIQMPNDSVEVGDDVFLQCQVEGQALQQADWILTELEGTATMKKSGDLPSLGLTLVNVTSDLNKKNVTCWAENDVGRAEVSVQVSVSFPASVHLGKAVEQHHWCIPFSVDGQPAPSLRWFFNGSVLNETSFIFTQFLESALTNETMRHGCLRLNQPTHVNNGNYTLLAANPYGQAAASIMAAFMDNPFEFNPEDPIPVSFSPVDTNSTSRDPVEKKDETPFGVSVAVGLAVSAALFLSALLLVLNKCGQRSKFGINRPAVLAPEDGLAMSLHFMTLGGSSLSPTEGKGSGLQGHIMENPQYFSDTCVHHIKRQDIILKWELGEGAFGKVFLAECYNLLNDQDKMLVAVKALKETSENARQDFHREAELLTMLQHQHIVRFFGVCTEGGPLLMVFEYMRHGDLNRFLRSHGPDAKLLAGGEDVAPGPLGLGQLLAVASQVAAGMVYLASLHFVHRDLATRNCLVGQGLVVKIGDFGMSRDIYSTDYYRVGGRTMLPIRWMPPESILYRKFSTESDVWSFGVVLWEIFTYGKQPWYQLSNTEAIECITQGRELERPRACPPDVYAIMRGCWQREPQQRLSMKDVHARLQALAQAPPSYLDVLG
T1 sequence (P04629 33-796): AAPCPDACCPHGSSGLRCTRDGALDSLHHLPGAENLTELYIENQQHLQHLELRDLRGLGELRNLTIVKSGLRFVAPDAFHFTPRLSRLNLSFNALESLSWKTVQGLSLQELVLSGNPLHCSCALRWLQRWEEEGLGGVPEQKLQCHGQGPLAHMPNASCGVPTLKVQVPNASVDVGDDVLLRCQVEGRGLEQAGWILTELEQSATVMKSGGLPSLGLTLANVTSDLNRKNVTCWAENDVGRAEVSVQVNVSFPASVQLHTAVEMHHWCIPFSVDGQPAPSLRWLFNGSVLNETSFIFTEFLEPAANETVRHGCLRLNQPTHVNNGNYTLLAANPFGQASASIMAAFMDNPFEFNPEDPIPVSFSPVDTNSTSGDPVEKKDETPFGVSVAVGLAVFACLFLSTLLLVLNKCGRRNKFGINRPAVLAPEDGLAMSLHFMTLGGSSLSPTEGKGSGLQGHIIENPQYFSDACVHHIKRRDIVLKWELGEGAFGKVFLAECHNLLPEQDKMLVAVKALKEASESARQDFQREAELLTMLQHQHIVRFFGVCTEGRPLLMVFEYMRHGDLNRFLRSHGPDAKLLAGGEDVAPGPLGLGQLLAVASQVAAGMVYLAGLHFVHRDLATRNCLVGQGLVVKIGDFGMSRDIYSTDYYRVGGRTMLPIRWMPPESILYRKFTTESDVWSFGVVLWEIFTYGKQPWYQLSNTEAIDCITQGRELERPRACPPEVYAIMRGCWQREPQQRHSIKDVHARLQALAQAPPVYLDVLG

IC50 [1] [nM]	Inhibition rate [2] [%]	Structure (SMILES)	Change rate of effective bladder capacity [3, 5] [%]	Inhibition rate [4] [%]	Change rate of effective bladder capacity [3, 6] [%]
11	92	COCCN(C)c1nc(C(=O)Nc2cccnc2N2CCN(CC(N)=O)CC2)cs1 [Example 382]	134	38	–
12	85	Cl.NC(=O)C1CCN(c2ncccc2NC(=O)c2coc(N3CCOCC3)n2)CC1 [Example 501, 1-(3-{[(2-morpholin-4-yl-1,3-oxazol-4-yl)carbonyl]amino}pyridin-2-yl)piperidine-4-carboxamide hydrochloride]	–	55	157
2.4	–	NC(=O)C1CCN(c2ccccc2NC(=O)c2csc(-c3ccoc3)n2)CC1 [Example 662, 1-[2-({[2-(3-furyl)-1,3-thiazol-4-yl]carbonyl}amino)phenyl]-4-piperidine carboxamide]	–	–	–
8.8	97	COCCN(C)c1nc(C(=O)Nc2ccccc2N2CCN(CC(N)=O)CC2)cs1.Cl [Example 356, N-{2-[4-(2-amino-2-oxoethyl)-piperazin-1-yl]phenyl}-2-[(2-methoxyethyl)(methyl)amino]-1,3-thiazole-4-carboxamide hydrochloride]	–	–	180
9.5	88	COCCN(C)c1nc(C(=O)Nc2cccnc2N2CCC(C(N)=O)CC2)cs1 [Example 380]	–	44	152
2.6	90	NC(=O)CN1CCN(c2c(F)cccc2NC(=O)c2csc(N3CCC(O)CC3)n2)CC1 [Example 311]	–	–	–
4.6	95	NC(=O)CN1CCN(c2ccc(F)cc2NC(=O)c2coc(C3CCOCC3)n2)CC1 [Example 942]	153	–	–
11	93	NC(=O)CN1CCN(c2ccccc2NC(=O)c2csc(N3CCOCC3)n2)CC1 [Example 151]	–	53	147
